The record followed here is patent publication US20250195484A1, “CEREBLON LIGANDS AND USES THEREOF” (priority 2022, published 2025).

What all share (format): cell-based
One experiment deals with SU-DHL-1. The experiment can be described thus: Cell viability assay (CellTiter-Glo 2.0), SU-DHL-1. The note with it: Homo sapiens, 96 h; SU-DHL-1 cells, 4 days. Here is the method: SU-DHL-1 and SUP-M2 cell viability was determined by CellTiter-Glo 2.0 Cell Viability Assay (Promega). […] In a typical procedure, cells seeded at 1000 cells per well in 384-well white plates (Corning) were incubated with serially diluted compounds for 4 days at 37° C. with 5% CO2. At the end of treatment, CellTiter-Glo 2.0 was added to the wells and luminescence was acquired on TECAN PSARK plate reader. Untreated cells were used as control. Data points were fit with a four-parameter equation to generate a concentration-response curve. IC50 values were calculated using a nonlinear regression analysis of the mean±SD from triplicate.
A general note: In ATP-based viability assays light output follows the ATP content of the culture.

Another experiment deals with T1, STAT3 (Homo sapiens, UniProt P40763).
T1 construct: host or cells: HeLa (STAT3-HiBiT CRISPR knock-in clone)
The experiment can be described thus: STAT3 degradation HiBiT assay (STAT3-HIBIT KI HeLa). The note with it: STAT3-HIBIT KI HeLa cells, 24 hours. The method, then: STAT3-HIBIT KI HeLa cell line was purchased from Promega. This cell line is a clone created by using CRISPR-Cas9 to fuse HiBIT to the 3′ end of STAT3 in HeLa cells. DMEM medium and FBS were purchased from Gibco/Thermo Fisher Scientific. STAT3 degradation was determined based on quantification of luminescent signal using Nano-Glo HiBIT Lytic Detection System. In a typical procedure, cells seeded at 20000 cells per well in 96-well white plates (Corning) were incubated with serially diluted compounds for 24 hours at 37° C. with 5% CO2. At the end of treatment, Nano-Glo HiBIT Lytic Detection reagents was added to the wells and luminescence was acquired on TECAN PSARK plate reader. Untreated cells were used as control. Data points were fit with a four-parameter equation to generate a concentration-response curve. IC50 values were calculated using a nonlinear regression analysis of the mean±SD from triplicate.
In general terms: With HiBiT, luminescence reflects the tagged protein that the partner subunit can reach.

In another experiment the test system is MOLM-16. In words: Cell viability assay (CellTiter-Glo 2.0), MOLM-16. As to conditions: MOLM16; MOLM-16 cells.
The target in the next experiment is T2, P300 (Homo sapiens, UniProt Q09472).
T2 construct: endogenous in cells; host or cells: 22Rv1
In words: P300 degradation, western blot, 22Rv1. The note with it: 22Rv1, 5 h. Here is the method: (§1) WesternT Blot Analysis. Western blot analysis was performed essentially as described previously. The cells treated with indicated compounds were lysed in Radioimmunoprecipitation Assay Protein Lysis and Extraction Buffer (25 mmol/L Tris.HCl, pH 7.6, 150 mmol/L NaCl, 1% Nonidet P-40, 1% sodium deoxycholate, and 0.1% sodium dodecyl sulfate) containing proteinase inhibitor cocktail (Roche Diagnostics, Mannheim, Germany). Equal amounts of total protein were electrophoresed through 10% SDS-polyacrylamide gels after determination of protein concentration by BCA assay (Fisher Scientific, Pittsburgh, PA). The separated protein bands were transferred onto PVDF membranes (GE Healthcare Life Sciences, Marlborough, MA) and blotted against different antibodies, as indicated. The blots were scanned, and the band intensities were quantified using GelQuant.NET software provided by biochemlabsolutions.com. The relative mean intensity of target proteins was expressed after normalization to the intensity of glyceraldehyde-3-phosphate dehydrogenase bands.
A general note: Immunoblotting shows a protein as a band on a membrane.

The next experiment deals with T3, CBP (Homo sapiens, UniProt Q92793).
T3 construct: endogenous in cells; host or cells: 22Rv1
In words: CBP degradation, western blot, 22Rv1. As to conditions: 22Rv1, 5 h. Here is the method:
as §1

SMILES strings stand for the structures. Where only a bound is given, the exact number is not on record here.

T2 sequence (Q09472 whole entry): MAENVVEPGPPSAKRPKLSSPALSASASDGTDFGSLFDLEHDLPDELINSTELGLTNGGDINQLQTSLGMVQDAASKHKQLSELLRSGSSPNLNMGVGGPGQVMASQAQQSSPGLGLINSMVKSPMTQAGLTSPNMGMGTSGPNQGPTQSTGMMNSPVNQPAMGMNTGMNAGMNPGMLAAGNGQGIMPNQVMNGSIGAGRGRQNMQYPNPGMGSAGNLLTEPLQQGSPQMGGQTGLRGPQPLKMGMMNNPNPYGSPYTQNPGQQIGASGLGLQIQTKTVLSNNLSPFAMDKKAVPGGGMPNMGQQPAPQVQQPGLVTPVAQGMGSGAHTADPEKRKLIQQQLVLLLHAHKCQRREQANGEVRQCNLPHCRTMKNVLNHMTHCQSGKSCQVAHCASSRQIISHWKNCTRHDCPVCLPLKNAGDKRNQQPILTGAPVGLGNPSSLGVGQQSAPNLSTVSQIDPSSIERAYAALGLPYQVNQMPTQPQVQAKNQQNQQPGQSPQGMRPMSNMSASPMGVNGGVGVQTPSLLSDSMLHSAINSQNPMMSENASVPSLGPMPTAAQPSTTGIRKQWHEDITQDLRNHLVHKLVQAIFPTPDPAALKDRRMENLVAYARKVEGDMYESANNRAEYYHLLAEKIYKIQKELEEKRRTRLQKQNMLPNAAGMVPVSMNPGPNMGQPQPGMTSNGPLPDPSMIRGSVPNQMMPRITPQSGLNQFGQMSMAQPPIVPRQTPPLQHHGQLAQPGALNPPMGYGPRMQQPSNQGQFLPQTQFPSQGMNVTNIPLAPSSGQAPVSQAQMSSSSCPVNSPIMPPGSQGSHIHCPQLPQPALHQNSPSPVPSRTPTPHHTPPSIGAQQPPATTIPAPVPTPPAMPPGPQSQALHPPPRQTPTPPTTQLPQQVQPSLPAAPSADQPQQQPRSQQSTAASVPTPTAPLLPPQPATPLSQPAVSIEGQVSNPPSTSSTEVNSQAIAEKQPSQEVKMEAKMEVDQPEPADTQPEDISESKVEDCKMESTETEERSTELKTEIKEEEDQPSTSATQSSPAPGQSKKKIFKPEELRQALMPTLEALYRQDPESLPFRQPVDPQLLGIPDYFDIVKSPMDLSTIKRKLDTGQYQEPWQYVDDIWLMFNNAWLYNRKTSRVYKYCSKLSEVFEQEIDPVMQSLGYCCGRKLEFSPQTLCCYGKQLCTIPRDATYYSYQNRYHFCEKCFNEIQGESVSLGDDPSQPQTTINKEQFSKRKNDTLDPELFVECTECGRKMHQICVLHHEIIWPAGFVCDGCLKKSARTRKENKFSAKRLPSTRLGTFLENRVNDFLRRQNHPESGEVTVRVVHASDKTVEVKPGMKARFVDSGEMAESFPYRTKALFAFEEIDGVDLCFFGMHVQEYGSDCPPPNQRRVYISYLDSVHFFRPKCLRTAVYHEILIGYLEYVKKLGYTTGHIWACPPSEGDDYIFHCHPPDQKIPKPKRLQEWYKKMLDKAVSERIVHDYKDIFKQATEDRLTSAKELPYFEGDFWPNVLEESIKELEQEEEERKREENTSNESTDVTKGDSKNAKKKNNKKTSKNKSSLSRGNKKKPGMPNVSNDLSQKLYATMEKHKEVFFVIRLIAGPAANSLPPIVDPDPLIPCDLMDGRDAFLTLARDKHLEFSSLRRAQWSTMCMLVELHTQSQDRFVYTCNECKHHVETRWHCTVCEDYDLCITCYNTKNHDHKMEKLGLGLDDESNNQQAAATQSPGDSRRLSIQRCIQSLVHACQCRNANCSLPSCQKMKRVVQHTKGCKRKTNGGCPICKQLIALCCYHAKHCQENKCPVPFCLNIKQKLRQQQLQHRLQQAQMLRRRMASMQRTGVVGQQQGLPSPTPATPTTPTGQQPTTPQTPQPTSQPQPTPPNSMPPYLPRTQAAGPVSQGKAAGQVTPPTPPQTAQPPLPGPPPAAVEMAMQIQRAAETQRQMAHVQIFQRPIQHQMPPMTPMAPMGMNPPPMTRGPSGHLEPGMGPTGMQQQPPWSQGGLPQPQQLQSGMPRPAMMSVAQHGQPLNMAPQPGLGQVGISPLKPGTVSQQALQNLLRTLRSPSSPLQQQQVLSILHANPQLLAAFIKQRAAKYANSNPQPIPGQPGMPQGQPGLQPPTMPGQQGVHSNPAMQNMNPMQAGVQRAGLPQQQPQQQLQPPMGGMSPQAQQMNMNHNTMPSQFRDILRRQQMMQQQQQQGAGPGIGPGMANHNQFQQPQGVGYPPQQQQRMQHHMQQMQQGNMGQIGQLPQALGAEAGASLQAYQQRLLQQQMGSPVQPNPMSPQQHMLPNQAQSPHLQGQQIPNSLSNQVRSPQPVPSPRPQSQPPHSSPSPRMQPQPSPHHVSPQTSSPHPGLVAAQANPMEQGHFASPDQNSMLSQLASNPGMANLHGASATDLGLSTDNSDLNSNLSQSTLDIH
T1 sequence (P40763 whole entry): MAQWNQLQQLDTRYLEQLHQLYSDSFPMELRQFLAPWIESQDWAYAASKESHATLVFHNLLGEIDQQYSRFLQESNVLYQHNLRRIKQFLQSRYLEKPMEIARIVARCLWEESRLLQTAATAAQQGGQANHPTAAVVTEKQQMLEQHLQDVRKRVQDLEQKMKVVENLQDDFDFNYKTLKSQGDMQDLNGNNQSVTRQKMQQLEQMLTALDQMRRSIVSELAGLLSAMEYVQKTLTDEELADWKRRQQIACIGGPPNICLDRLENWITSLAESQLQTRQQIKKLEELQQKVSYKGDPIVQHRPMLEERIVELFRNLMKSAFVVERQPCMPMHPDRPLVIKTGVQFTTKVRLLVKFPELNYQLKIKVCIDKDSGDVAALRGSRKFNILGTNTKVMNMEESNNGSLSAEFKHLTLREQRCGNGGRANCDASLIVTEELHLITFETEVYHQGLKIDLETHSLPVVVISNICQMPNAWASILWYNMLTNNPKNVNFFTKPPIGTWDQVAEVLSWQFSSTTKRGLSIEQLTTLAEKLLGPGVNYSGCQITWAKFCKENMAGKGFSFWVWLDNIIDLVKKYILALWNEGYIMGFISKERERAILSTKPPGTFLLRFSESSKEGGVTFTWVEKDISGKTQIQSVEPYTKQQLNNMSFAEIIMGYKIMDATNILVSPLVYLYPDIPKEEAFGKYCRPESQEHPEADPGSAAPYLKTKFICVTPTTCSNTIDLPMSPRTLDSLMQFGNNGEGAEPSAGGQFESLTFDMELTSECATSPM

As a reminder, the IC50 is the concentration that gives 50% inhibition. Low readings indicate higher potency, high ones lower potency. A word on the DC50: it is the concentration giving 50% degradation. As usually defined, the Dmax is the largest share of the target that was removed. On to `NC(=O)CC[C@H](NC(=O)[C@@H]1CC[C@@H]2CCN(C(=O)CCCCN3CCC4(CC3)COc3c4ccc4c3CN([C@H]3CCC(=O)NC3=O)C4=O)C[C@H](NC(=O)c3cc4cc(C(F)(F)P(=O)(O)O)ccc4s3)C(=O)N21)C(=O)NCc1cccc(Cl)c1` [STD 70, ((2-(((5S,8S,10aR)-8-(((S)-5-amino-1-((3-chlorobenzyl)amino)-1,5-dioxopentan-2-yl)carbamoyl)-3-(5-(7-((S)-2,6-dioxopiperidin-3-yl)-6-oxo-7,8-dihydro-2H,6H-spiro[furo[2,3-e]isoindole-3,4′-piperidin]-1′-yl)pentanoyl)-6-oxodecahydropyrrolo[1,2-a][1,5]diazocin-5-yl)carbamoyl)benzo[b]thiophen-5-yl)difluoromethyl)phosphonic acid], for which the IC50 with SU-DHL-1 was in the range of 1000 to 10000 nM. Further, at STAT3, the DC50 was in the range of 100 to 1000 nM and the Dmax is ≥ 80%. The compound also displayed an IC50 in the experiment on MOLM-16 of 1000 to 10000 nM.

Regarding `CCS(=O)(=O)c1ccc(CNC(=O)[C@H](CCC(N)=O)NC(=O)[C@@H]2CC[C@@H]3CCN(C(=O)CCCCN4CCC5(CC4)COc4c5ccc5c4CN([C@H]4CCC(=O)NC4=O)C5=O)C[C@H](NC(=O)c4cc5cc(C(=O)P(=O)(O)O)ccc5[nH]4)C(=O)N32)cc1` [STD 85, (2-(((5S,8S,10aR)-8-(((S)-5-amino-1-((4-(ethylsulfonyl)benzyl)amino)-1,5-dioxopentan-2-yl)carbamoyl)-3-(5-(7-((S)-2,6-dioxopiperidin-3-yl)-6-oxo-7,8-dihydro-2H,6H-spiro[furo[2,3-e]isoindole-3,4′-piperidin]-1′-yl)pentanoyl)-6-oxodecahydropyrrolo[1,2-a] [1,5]diazocin-5-yl)carbamoyl)-1H-indole-5-carbonyl)phosphonic acid], the results for the IC50 in the experiment on SU-DHL-1 and with MOLM-16 were 1000 to 10000 nM and 100 to 1000 nM, respectively. The same compound came in with a DC50 at STAT3 of 100 to 1000 nM. For the same compound, on STAT3, the Dmax is ≥ 80%.

In the experiment with SU-DHL-1, `CC(C)S(=O)(=O)c1ccc(CNC(=O)[C@H](CCC(N)=O)NC(=O)[C@@H]2CC[C@@H]3CCN(C(=O)CCCCN4CCC5(CC4)COc4c5ccc5c4CN([C@H]4CCC(=O)NC4=O)C5=O)C[C@H](NC(=O)c4cc5cc(C(=O)P(=O)(O)O)ccc5[nH]4)C(=O)N32)cc1` [STD 86, (2-(((5S,8S,10aR)-8-(((S)-5-amino-1-((4-(isopropylsulfonyl)benzyl)amino)-1,5-dioxopentan-2-yl)carbamoyl)-3-(5-(7-((S)-2,6-dioxopiperidin-3-yl)-6-oxo-7,8-dihydro-2H,6H-spiro[furo[2,3-e]isoindole-3,4′-piperidin]-1′-yl)pentanoyl)-6-oxodecahydropyrrolo[1,2-a] [1,5]diazocin-5-yl)carbamoyl)-1H-indole-5-carbonyl)phosphonic acid] yielded an IC50 of 1000 to 10000 nM. Also, at STAT3, the DC50 was 100 to 1000 nM and the Dmax was ≥ 80%. This compound also yielded an IC50 in the experiment with MOLM-16 of 100 to 1000 nM.

On to `CC(=O)N1CCc2c(c(N3CCCc4cc(-c5cnn(C)c5)c(C(F)F)cc43)nn2[C@H]2CC[C@@H](C(=O)N3CCC4(CC3)COc3c4ccc4c3CN([C@H]3CCC(=O)NC3=O)C4=O)CC2)C1` [CPD-006, (S)-3-(1′-((1s,4R)-4-(5-acetyl-3-(7-(difluoromethyl)-6-(1-methyl-1H-pyrazol-4-yl)-3,4-dihydroquinolin-1(2H)-yl)-4,5,6,7-tetrahydro-1H-pyrazolo[4,3-c]pyridin-1-yl)cyclohexane-1-carbonyl)-6-oxo-6,8-dihydro-2H,7H-spiro[furo[2,3-e]isoindole-3,4′-piperidin]-7-yl)piperidine-2,6-dione], for which, at P300, the DC50 lay within 0.1 to 1 nM and the “P300 Degradation DCmax” value is “A (A (≥90%))”. Moreover, at CBP, the “CBP Degradation DCmax” value is listed as “A (A (≥90%))” and the DC50 is < 0.1 nM.

Turning to `CS(=O)(=O)c1cccc(OC[C@H](CCC(N)=O)NC(=O)[C@@H]2CC[C@@H]3CCN(C(=O)CCCCN4CCC5(CC4)COc4c5ccc5c4CN([C@H]4CCC(=O)NC4=O)C5=O)C[C@H](NC(=O)c4cc5cc(C(=O)P(=O)(O)O)ccc5[nH]4)C(=O)N32)c1` [STD 84, (2-(((5S,8S,10aR)-8-(((S)-5-amino-1-(3-(methylsulfonyl)phenoxy)-5-oxopentan-2-yl)carbamoyl)-3-(5-(7-((S)-2,6-dioxopiperidin-3-yl)-6-oxo-7,8-dihydro-2H,6H-spiro[furo[2,3-e]isoindole-3,4′-piperidin]-1′-yl)pentanoyl)-6-oxodecahydropyrrolo[1,2-a] [1,5]diazocin-5-yl)carbamoyl)-1H-indole-5-carbonyl)phosphonic acid], the IC50 lay in the range of 1000 to 10000 nM in the experiment on SU-DHL-1 and 100 to 1000 nM in the experiment with MOLM-16. This compound gave a DC50 on STAT3 of 100 to 1000 nM. For the same compound, the Dmax at STAT3 is ≥ 80%.

For the compound `CC(=O)N1CCc2c(c(N3CCCc4cc(-c5cnn(C)c5)c(C(F)F)cc43)nn2[C@H]2CC[C@H](C(=O)N3CCC4(CC3)COc3c4ccc4c3CN([C@H]3CCC(=O)NC3=O)C4=O)CC2)C1` [CPD-005, (S)-3-(1′-((1r,4S)-4-(5-acetyl-3-(7-(difluoromethyl)-6-(1-methyl-1H-pyrazol-4-yl)-3,4-dihydroquinolin-1(2H)-yl)-4,5,6,7-tetrahydro-1H-pyrazolo[4,3-c]pyridin-1-yl)cyclohexane-1-carbonyl)-6-oxo-6,8-dihydro-2H,7H-spiro[furo[2,3-e]isoindole-3,4′-piperidin]-7-yl)piperidine-2,6-dione], on P300, the DC50 is < 0.1 nM and the “P300 Degradation DCmax” value was “A (A (≥90%))”. In addition, at CBP, the “CBP Degradation DCmax” value was “A (A (≥90%))” and the DC50 was < 0.1 nM.

As to `CC(=O)N1CCc2c(c(N3CCCc4cc(-c5cnn(C)c5)c(C(F)F)cc43)nn2C2CCC(N3CCC4(CC3)COc3c4ccc4c3CN([C@H]3CCC(=O)NC3=O)C4=O)CC2)C1` (stereo partly drawn) [CPD-003, (S)-3-(1′-(4-(5-acetyl-3-(7-(difluoromethyl)-6-(1-methyl-1H-pyrazol-4-yl)-3,4-dihydroquinolin-1(2H)-yl)-4,5,6,7-tetrahydro-1H-pyrazolo[4,3-c]pyridin-1-yl)cyclohexyl)-6-oxo-6,8-dihydro-2H,7H-spiro[furo[2,3-e]isoindole-3,4′-piperidin]-7-yl)piperidine-2,6-dione], on P300, the DC50 is < 0.1 nM and the “P300 Degradation DCmax” value is recorded as “A (A (≥90%))”. Further, on CBP, the “CBP Degradation DCmax” value is “A (A (≥90%))” and the DC50 was < 0.1 nM.

For `CC(C)S(=O)(=O)c1ccc(CNC(=O)[C@H](CCC(N)=O)NC(=O)[C@@H]2CC[C@@H]3CCN(C(=O)CCCCN4CCC5(CC4)COc4c5ccc5c4CN([C@H]4CCC(=O)NC4=O)C5=O)C[C@H](NC(=O)c4cc5cc(C(F)(F)P(=O)(O)O)ccc5s4)C(=O)N32)cc1` [STD 80, ((2-(((5S,8S,10aR)-8-(((S)-5-amino-1-((4-(isopropylsulfonyl)benzyl)amino)-1,5-dioxopentan-2-yl)carbamoyl)-3-(5-(7-((S)-2,6-dioxopiperidin-3-yl)-6-oxo-7,8-dihydro-2H,6H-spiro[furo[2,3-e]isoindole-3,4′-piperidin]-1′-yl)pentanoyl)-6-oxodecahydropyrrolo[1,2-a][1,5]diazocin-5-yl)carbamoyl)benzo[b]thiophen-5-yl)difluoromethyl)phosphonic acid], the IC50 fell in the range of 1000 to 10000 nM in the experiment on SU-DHL-1 and 100 to 1000 nM with MOLM-16. Also, at STAT3, the DC50 lay in the range of 100 to 1000 nM. The Dmax on STAT3 was ≥ 80%.

As for `CC(=O)N1CCc2c(c(N3CCCc4cc(-c5cnn(C)c5)c(C(F)F)cc43)nn2[C@H]2CC[C@H](CN3CCC4(CC3)COc3c4ccc4c3CN([C@H]3CCC(=O)NC3=O)C4=O)CC2)C1` [CPD-004, (S)-3-(1′-(((1r,4S)-4-(5-acetyl-3-(7-(difluoromethyl)-6-(1-methyl-1H-pyrazol-4-yl)-3,4-dihydroquinolin-1(2H)-yl)-4,5,6,7-tetrahydro-1H-pyrazolo[4,3-c]pyridin-1-yl)cyclohexyl)methyl)-6-oxo-6,8-dihydro-2H,7H-spiro[furo[2,3-e]isoindole-3,4′-piperidin]-7-yl)piperidine-2,6-dione], on P300, the DC50 was < 0.1 nM and the “P300 Degradation DCmax” value is “A (A (≥90%))”. For the same compound, at CBP, the “CBP Degradation DCmax” value was “A (A (≥90%))” and the DC50 was < 0.1 nM.
